Results: patent US20230355678A1, “METHODS FOR IMPROVING T CELL EFFICACY” (IMMATICS US, INC., priority 2022, published 2023)
“Also recorded” adds a separate entry of the source. Read-outs that look alike come from different tables or passages of the source.

What was measured:
[1] = system: transduced T cells; experiment: Viability of T cell products; design: viability of transduced T cells: dose or concentration left out as unconfirmed; conditions: for viability of transduced T cells: Day 7, vs controls (no HDACi and DMSO), FIG. 2A
Description: (§1) (DMSO low concentration=low volume=0.00001%; vehicle control for Panobinostat at low concentration (1 nM); DMSO high concentration=high volume=1.5%; vehicle control for valproic acid at high concentration (1.5 mM); all except Na butyrate (water) were dissolved in DMSO)

[2] = system: transduced T cells; experiment: Fold expansion and manufacturing metrics of T cell products; assay type: cell-based; design: fold expansion: unit of the concentration uncertain; conditions: for fold expansion: FIG. 2B; for fold expansion of T cell products: vs untreated control
Description: as §1
(§2) On Day 1, the activated CD4/CD8-selected cells were transduced with Lentiviral vectors expressing a target-specific exogenous TCR. On Day 2, the culture media were removed and the transduced cells were fed with fresh media in the absence of Panobinostat, SAHA+IL-21, and AKTi VIII and in the presence of cytokines, for cell expansion. On Day 7-Day 10, cells were harvested and cryopreserved for harvest metrics, phenotypic analysis, and functional studies including Incucyte tumor serial killing assay, cytokine production, and exhaustion analysis. To test the effects of TKi, e.g., dasatinib, on T cell products, dasatinib was added on Day 2 (5 nM) and Day 5 (10 nM) during feeding and expansion.
(§3) On Day 0, thawed and rested CD4/CD8-selected cells were activated in the presence of anti-CD3/anti-CD28 antibodies. On Day 1, the activated CD4/CD8-selected cells were transduced with Lentiviral vectors expressing a target-specific exogenous TCR and exogenous CD8 molecules. On Day 2, the culture media were removed and the transduced cells were fed with fresh media containing cytokines for cell expansion. Dasatinib was added on Day 2 or on Day 5. On Day 7-Day 10, cells were harvested and cryopreserved for harvest metrics, phenotypic analysis, and functional studies including Incucyte tumor serial killing assay, cytokine production, and exhaustion analysis.

[3] = system: transduced T cells; experiment: Transduction efficiency by flow cytometry gated on CD3+CD8+ TCR+ cells; assay type: cell-based; design: % CD8+ T cells / % CD8+ TCR+ cells (transduction efficiency): unit of the concentration uncertain; conditions: for % CD8+ T cells / % CD8+ TCR+ cells (transduction efficiency): FIG. 3; for % CD8+ TCR+ T cells (transduction efficiency) / total number of T cell products with CD8+ TCR+ T cells: vs untreated control
Description: Transduction efficiency of transduced T cells treated with different HDACi were determined by flow cytometry gated on CD3+CD8+ TCR+ cells.
as §2, §3

[4] = system: transduced T cells; experiment: Exhaustion / inhibitory receptor (ICI) marker expression of T cell products; assay type: cell-based
Description: The sustained expression of multiple inhibitory receptors may be the hallmark of exhausted T cells. Common to both CD4+ and CD8+ exhausted T cells may be the surface expression of multiple inhibitory receptors, e.g., 2B4, 4-1BB, CD39, CD69, LAG3, PD-1, TIGIT, and TIM3. Expression of these inhibitory receptors in T cell products prepared by Panobinostat treatment at different time was determined. […] Panobinostat treatment on Day 0 increased % PD-1+ cells in T cell products as compared with other treatments and control.
CD39 may be considered as a marker for exhausted T cells, e.g., CD8+ T cells, in cancer. CD69 is a membrane-bound, type II C-lectin receptor and may be considered as an early marker of lymphocyte activation due to its rapid appearance on the surface of the plasma membrane after stimulation. […] Dasatinib may have little effect on % of terminally differentiated CD39-positive state (CD39+CD69+) and % of CD69+ state in T cell products.
Common to both CD4+ and CD8+ exhausted T cells may be the surface expression of multiple inhibitory receptors including 2B4, 4-1BB, CD39, CD69, LAG3, PD-1, TIGIT, and TIM-3.

[5] = system: transduced T cells; experiment: Memory T cell phenotype by flow cytometry; assay type: cell-based; conditions: for Ranking of T cell products from the most Tnaive and the least TemRA to the least Tnaive and the most TemRA: comparative study, FIG. 25A-B; for CD28+CD62L+ cells (Tcm-like cells): FIG. 5; for % Tnaïve cells / TemRA cells: vs other treatments and control (no HDACi), FIG. 4
Description: Phenotypes of transduced T cells treated with different HDACi were determined by flow cytometry gated on CD3+CD8+ TCR+ cells. […] No major difference in immune-checkpoint-inhibitor (ICI) marker expression was observed.
Using Panobinostat as example, phenotypes of T cell products prepared by Panobinostat treatment on Day 0 (activation), Day 1 (transduction), or Day 2 (feeding) were determined.
as §2, §3

[6] = system: UACC257; experiment: Tumor cell killing by T cell products (Incucyte tumor serial killing assay); assay type: cell-based
Description: as §2
T cell products prepared by activating T cells obtained from three patients (n=3) in the presence of Panobinostat, SAHA+IL-21, or AKTi VIII were compared with regards to tumor killing activity when contacting target cells, e.g., UACC257, which express a report gene encoding red florescent protein (RFP), with E:T=3:1. TCR-positive cells were normalized.
(n=3 healthy donors; TCR normalized T cells:UACC257-iRFP=3:1).

[7] = system: transduced T cells; experiment: Response to Ag exposure (cytokine expression, exhaustion); assay type: cell-based; conditions: Acceptable range ≥Control; Table 5 summary grade
Description: as §2

[8] = dasatinib (10 nM) on Day 2 or Day 5, vs untreated control, FIG. 23C
[9] = dasatinib (5 nM) on Day 2 compared with dasatinib (10 nM) on Day 5, FIG. 25A
[10] = dasatinib (10 nM) on Day 2 or Day 5, FIG. 23B
[11] = dasatinib added Day 2 (5 nM) and Day 5 (10 nM) during feeding and expansion, vs untreated control, FIG. 25A

## Nc1ccccc1NC(=O)c1ccc(CNC(=O)OCc2cccnc2)cc1 [Entinostat, entinostat]
[1]
  toxicity to T cells: highly toxic
  viability of transduced T cells: reduced T cell viability
[2]; 2 (unit uncertain)
  fold expansion: reduced fold expansion
[3]; 2 (unit uncertain)
  % CD8+ T cells: reduced % CD8+ T cells
  % CD8+ TCR+ cells (transduction efficiency): reduced % CD8+ TCR+ cells

## Cc1nc(Nc2ncc(C(=O)Nc3c(C)cccc3Cl)s2)cc(N2CCN(CCO)CC2)n1 [Dasatinib, dasatinib]
[2]; Acceptable range ≥Control, Table 5 summary grade
  Manufacturing metrics (expansion, viability, yield): =
[2]; dasatinib added Day 2 (5 nM) and Day 5 (10 nM) during feeding and expansion, FIG. 24A
  fold expansion of T cell products: little effect
[2]; dasatinib on Day 2 (10 nM or 100 nM) or Day 5 (10 nM or 100 nM), FIG. 22A
  fold expansion of T cell products: little effect
[4]; dasatinib (10 nM) on Day 2 or Day 5, vs Panobinostat or AKTi VIII or untreated control, FIG. 27A
  % 2B4+, % Cd69+, and % TIM-3+ cells in T cell products: decreased
[4]; dasatinib (10 nM) on Day 2 or Day 5, vs Panobinostat or AKTi VIII or untreated control, FIG. 27B
  MFI of 4-1BB and TIM-3 in T cell products: decreased
[4]; [8]
  % of T cell products with differentiated CD39+ state (CD39+): slightly higher
  % of T cell products with memory-progenitor CD39− negative stem-like phenotype (CD39−CD69−): slightly less
[4]; dasatinib, FIG. 23C
  % of terminally differentiated CD39-positive state (CD39+CD69+) and % of CD69+ state: little effect
[5]; Dasatinib-treated cells vs untreated cells
  phenotype: Better Phenotype
[5]
  Ranking of T cell products from the most Tnaive and the least TemRA to the least Tnaive and the most TemRA: dasatinib (5 nM) on Day 2 >dasatinib (10 nM) on Day 5 >AKTi VIII >Panobinostat
[5]; [9]
  % TemRA in T cell products: less
  % Tnaive in T cell products: more
[5]; dasatinib (10 nM) on Day 2 or Day 5, FIG. 23A
  expression of CD27: Little effect
[5]; [10]
  % Tnaive in T cell products: less
  % of differentiated TemRA: less
[5]; dasatinib (10 nM) on Day 2 or Day 5, vs Panobinostat, SAHA+IL-21, AKTi VIII or untreated control, FIG. 26A
  % CD62L+ and % CD28+CD62L+ cells in T cell products: increased
[5]; dasatinib (10 nM) on Day 2 or Day 5, vs Panobinostat, SAHA+IL-21, AKTi VIII or untreated control, FIG. 26B
  MFI of CD27 and CD62L in T cell products: increased
[5]; dasatinib (10 nM) on Day 2 or Day 5, vs untreated control, FIG. 23A
  expression of Tnaive and Tcm markers CD28 and CD62L: increased
[5]; [11]
  % TemRA in T cell products: decreased
  % Tnaive in T cell products: increased
[5]; dasatinib added Day 2 (5 nM) and Day 5 (10 nM) during feeding and expansion, vs untreated control, FIG. 25B
  number of Tnaive in T cell products: increased
[3]; dasatinib added Day 2 (5 nM) and Day 5 (10 nM) during feeding and expansion, FIG. 24B
  % CD8+ TCR+ T cells (transduction efficiency): higher
[3]; dasatinib added Day 2 (5 nM) and Day 5 (10 nM) during feeding and expansion, FIG. 24C
  total number of T cell products with CD8+ TCR+ T cells: little effect
[3]; dasatinib on Day 2 (10 nM or 100 nM) or Day 5 (10 nM or 100 nM), FIG. 22B
  % CD8+ TCR+ T cells (transduction efficiency): higher
[3]; expansion in the presence of dasatinib, FIG. 22C
  total number of T cell products with CD8+ TCR+ T cells: little effect
[6]; expansion in the presence of dasatinib, TCR normalized T cells:UACC257-RFP=3:1, n=3 healthy donors, vs Panobinostat or AKTi VIII and controls, FIG. 28A, 29A-C
  tumor killing activity: significantly better tumor killing activity

## 3-[1-[[4-(7-phenyl-3H-imidazo[4, 5g]quinoxalin-6-yl)phenyl]methyl]piperidin-4-yl]-1H-benzimidazol-2-one [AKTi VIII]
[2]; AKTi VIII 250 nM added Day 0 during activation, FIG. 19A, 24A
  fold expansion of T cell products: little effect
[2]; AKTi-treated cells compared with Panobinostat and SAHA+IL-21 treated cells
  manufacturing metrics and phenotype: relatively better
[4]; Acceptable range ≤% of exhausted cells to control, Table 5 summary grade
  Exhaustion phenotype: =
[5]; AKTi VIII 250 nM added Day 0 during activation, FIG. 20A
  % of Tcm (CD45RA−CCR7+), Teff (CD45−CCD7−), and TemRA (CD45RA+CCR7-): little effect
[5]; AKTi VIII 250 nM added Day 0 during activation, vs Panobinostat, SAHA+IL-21 and untreated control, FIG. 20B, 25B
  total number of Tnaive (CD45RA+CCR7+) in T cell products: best total number; also recorded: increased
[5]; AKTi VIII 250 nM added Day 0 during activation, vs untreated control, FIG. 20A, 25A
  % Tnaive (CD45RA+CCR7+) in T cell products: increased
[5]; AKTi VIII 250 nM added Day 0 during activation, vs untreated control, FIG. 20C
  expression of Tnaive and Tcm markers (CD27, CD28, CD62L): little effect
[5]; AKTi VIII 250 nM added Day 0 during activation, vs untreated control, FIG. 25A
  % TemRA in T cell products: decreased
[5]; Acceptable range: Higher % of Tscm, Tcm, lower % of TemRA, improvements in other memory markers (CD62L, CD28, CD27), Table 5 summary grade
  Memory Phenotype: +/=
[5]
  Ranking of T cell products from the most Tnaive and the least TemRA to the least Tnaive and the most TemRA: dasatinib (5 nM) on Day 2 >dasatinib (10 nM) on Day 5 >AKTi VIII >Panobinostat
[3]; AKTi VIII 250 nM added Day 0 during activation, FIG. 19B, 24B
  % CD8+ TCR+ T cells (transduction efficiency): higher
[7]
  Response to Ag exposure (cytokine expression, exhaustion): +/=
[6]; AKTi VIII 250 nM added Day 0 during activation, UACC257-RFP, E:T=3:1, n=3 patients, vs Panobinostat and controls, FIG. 21A
  tumor killing activity: better tumor killing activity
[6]; AKTi VIII 250 nM added Day 0 during activation, UACC257-RFP, E:T=3:1, n=3 patients, vs Panobinostat and controls, FIG. 21A, listed as AKTi
  tumor killing activity: better tumor-killing activity

## CCCC(CCC)C(=O)O [valproic acid]
[1]
  toxicity to T cells: highly toxic
[2]; 1.5 (unit uncertain)
  fold expansion: reduced fold expansion
[3]; 1.5 (unit uncertain)
  % CD8+ T cells: reduced % CD8+ T cells

## O=C(CCCCCCNC(=O)c1cnc(N(c2ccccc2)c2ccccc2Cl)nc1)NO [ACY-241]
[5]; 100 nM
  CD28+CD62L+ cells (Tcm-like cells): more CD28+CD62L+ cells; also recorded: increased
  % Tnaïve cells: most % Tnaïve cells; also recorded: most naïve cells
  TemRA cells: least TemRA cells

## CCCC(=O)[O-].[Na+] [Sodium butyrate]
[1]
  viability of transduced T cells: reduced T cell viability
[1]; summary of Example 2
  toxicity to T cells: highly toxic
[2]; 2 (unit uncertain)
  fold expansion: reduced fold expansion
[3]; 2 (unit uncertain)
  % CD8+ T cells: reduced % CD8+ T cells
  % CD8+ TCR+ cells (transduction efficiency): reduced % CD8+ TCR+ cells

## O=C(CCCCCCC(=O)Nc1ccccc1)NO [SAHA, suberanilohydroxamic acid]
[5]; 50 nM
  CD28+CD62L+ cells (Tcm-like cells): more CD28+CD62L+ cells; also recorded: increased
  % Tnaïve cells: most % Tnaïve cells; also recorded: most naïve cells
  TemRA cells: least TemRA cells
